Paper PMC8119466, “A screen of FDA-approved drugs identifies inhibitors of protein tyrosine phosphatase 4A3 (PTP4A3 or PRL-3)” (Scientific Reports, 2021)

Tested on: HCT116 cells
Assay: Annexin V staining, HCT116
Type: cell-based, human
Conditions: HCT-116; 100 µM Salirasib or 25 µM Candesartan; 24 and 48 hr
Method: HEK293T, HCT116, and SW480 cells were plated in 6 well dishes at 4 × 10^5 cell seeding density and treated with DMSO, Candesartan and Salirasib at the indicated concentrations. Cells were collected at 24 h and 48 h time points and the AnnexinV staining was performed according to the instructions from the manual (Thermo Fisher, Cat # 00-0055-56). Flow cytometry with AnnexinV-FITC conjugated antibody (Thermo Fisher, Cat # A13199) was used to determine the population of cells incorporating Annexin V and PI was used for the DNA content.

CCOc1nc2cccc(C(=O)O)c2n1Cc1ccc(-c2ccccc2-c2nnn[nH]2)cc1 [Candesartan]
apoptosis (AnnexinV plus propidium iodide): did not significantly impact
